Reference: patent US20230085307A1, “PYRIDAZINONE COMPOUND AND HERBICIDE” (NISSAN CHEMICAL CORPORATION, priority 2019, published 2023)

Legend:
[1] = system: wild oat; assay: Test Example 4: herbicidal effect by soil treatment (Table 19, symbol I); assay type: in vivo, wild oat (Avena fatua); conditions: amount of applied herbicide 320 g/ha
Summary of the method: (§1)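 Seeds were sown in sterilized diluvial soil and covered with about 1.5 cm of soil. An emulsion formulation diluted with water to a predetermined herbicide amount was sprayed evenly onto the soil surface. Plants grew in a greenhouse at 25° C. to 30° C., and the effect was scored three weeks after application using criteria from an earlier test.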

[2] = system: velvetleaf; assay: Test Example 5: herbicidal effect by foliage application, plastic box (Table 20, symbol M); assay type: in vivo, velvetleaf (Abutilon theophrasti); conditions: foliage application, AAH 320 g/ha, evaluated three weeks after application
Summary of the method: (§2)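 Plants sown in sterilized diluvial soil and grown 14 days in a greenhouse at 25° C to 30° C, then sprayed on the foliage with the compound's emulsion diluted in water to a predetermined herbicide amount. Injury to weeds and crops scored three weeks after application on a visual rating scale.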

[3] = system: redroot pigweed; assay: Test Example 5: herbicidal effect by foliage application, plastic box (Table 20, symbol N); assay type: in vivo, redroot pigweed (Amaranthus retroflexus); conditions: foliage application, AAH 320 g/ha, evaluated three weeks after application
Summary of the method: as §2

[4] = system: green foxtail; assay: Test Example 5: herbicidal effect by foliage application, plastic box (Table 20, symbol G); assay type: in vivo, green foxtail (Setaria viridis); conditions: foliage application, AAH 320 g/ha, evaluated three weeks after application
Summary of the method: as §2

[5] = system: persian speedwell; assay: Test Example 4: herbicidal effect by soil treatment (Table 19, symbol R); assay type: in vivo, Persian speedwell (Veronica persica); conditions: amount of applied herbicide 320 g/ha
Summary of the method: as §1

[6] = system: persian speedwell; assay: Test Example 5: herbicidal effect by foliage application, plastic box (Table 20, symbol R); assay type: in vivo, Persian speedwell (Veronica persica); conditions: foliage application, AAH 320 g/ha, evaluated three weeks after application
Summary of the method: as §2

[7] = system: barnyard grass; assay: Test Example 5: herbicidal effect by foliage application, plastic box (Table 20, symbol H); assay type: in vivo, barnyard grass (Echinochloa crus-galli); conditions: foliage application, AAH 320 g/ha, evaluated three weeks after application
Summary of the method: as §2

[8] = system: Italian ryegrass; assay: Test Example 4: herbicidal effect by soil treatment (Table 19, symbol K); assay type: in vivo, Italian ryegrass (Lolium multiflorum); conditions: amount of applied herbicide 320 g/ha
Summary of the method: as §1

[9] = system: Japanese bulrush; assay: Test Example 2: herbicidal activity, application during weed generation under submerged conditions (Table 17, symbol B); assay type: in vivo, Japanese bulrush (Schoenoplectus juncoides); conditions: AAH 320 g/ha; application during weed generation, submerged conditions
Summary of the method: (§3)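 Effect on each weed is rated three weeks post-treatment, using the same scoring criteria as the preceding test. Plants grow from mixed-sown seed in flooded alluvial soil (4 cm water) at 25° C. to 30° C., and are treated at one to two leaves with diluted emulsion dropped onto the water.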

[10] = system: oval-leafed pondweed; assay: Test Example 1: herbicidal activity, application before weed generation under submerged conditions (Table 16, symbol C); assay type: in vivo, oval-leafed pondweed (Monochoria vaginalis); conditions: 320 g/ha applied herbicide
Summary of the method: (§4)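 Submerged Wagner pots (alluvial soil, 4 cm water) sown with weed seeds and planted with 2.5-leaf rice seedlings; emulsifiable concentrate diluted in water applied to water surface on sowing day. Held in greenhouse at 25-30 °C; injury scored 0-5 by herbicidal rate after three weeks.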

[11] = system: late watergrass; assay: Test Example 1: herbicidal activity, application before weed generation under submerged conditions (Table 16, symbol A); assay type: in vivo, late watergrass (Echinochloa oryzicola); conditions: 320 g/ha applied herbicide
Summary of the method: as §4

[12] = system: oval-leafed pondweed; assay: Test Example 2: herbicidal activity, application during weed generation under submerged conditions (Table 17, symbol C); assay type: in vivo, oval-leafed pondweed (Monochoria vaginalis); conditions: AAH 320 g/ha; application during weed generation, submerged conditions
Summary of the method: as §3

[13] = system: windgrass; assay: Test Example 4: herbicidal effect by soil treatment (Table 19, symbol L); assay type: in vivo, windgrass (Apera spica-venti); conditions: amount of applied herbicide 320 g/ha
Summary of the method: as §1

[14] = system: chickweed; assay: Test Example 5: herbicidal effect by foliage application, plastic box (Table 20, symbol P); assay type: in vivo, common chickweed (Stellaria media); conditions: foliage application, AAH 320 g/ha, evaluated three weeks after application
Summary of the method: as §2

[15] = system: rice flat sedge; assay: Test Example 3: herbicidal effect by foliage application, Wagner pot (Table 18, symbol E); assay type: in vivo, rice flat sedge (Cyperus iria); conditions: amount of applied herbicide 320 g/ha
Summary of the method: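 Plants were sown in alluvial soil held under 0.1–0.5 cm standing water and grown 14 days in a greenhouse at 25–30 °C. An emulsifiable formulation, water-diluted to the set dose, was then sprayed onto the foliage, and effects were scored three weeks later using previously defined criteria.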

[16] = system: southern crabgrass; assay: Test Example 5: herbicidal effect by foliage application, plastic box (Table 20, symbol F); assay type: in vivo, southern crabgrass (Digitaria ciliaris); conditions: foliage application, AAH 320 g/ha, evaluated three weeks after application
Summary of the method: as §2

With `Cc1nn(C)c(=O)c(-c2c(-c3ccc(OC(F)F)cc3)sc3ccc(F)cc23)c1OC(=O)COc1ccccc1` [2-284] the “herbicidal effect on I: wild oat” value [1] was 3 (Herbicidal rate of 40% or more and less than 70%), the “M: velvetleaf, herbicidal effect (criteria 0-5)” value [2] was 5 (Herbicidal rate of 90% or more (almost completely withered)) and the “N: redroot pigweed, herbicidal effect (criteria 0-5)” value [3] was 5 (Herbicidal rate of 90% or more (almost completely withered)). For the same compound, the “G: green foxtail, herbicidal effect (criteria 0-5)” value [4] was 5 (Herbicidal rate of 90% or more (almost completely withered)), the “herbicidal effect on R: persian speedwell” value [5] was 5 (Herbicidal rate of 90% or more (almost completely withered)) and the “R: persian speedwell, herbicidal effect (criteria 0-5)” value [6] was 5 (Herbicidal rate of 90% or more (almost completely withered)). The “H: barnyard grass, herbicidal effect (criteria 0-5)” value [7] was 5 (Herbicidal rate of 90% or more (almost completely withered)), the “herbicidal effect on K: Italian ryegrass” value [8] was 5 (Herbicidal rate of 90% or more (almost completely withered)) and the “herbicidal effect rating, B: Japanese bulrush” value [9] was 3 (Herbicidal rate of 40% or more and less than 70%). The “Herbicidal effect on C: oval-leafed pondweed (grade 0-5)” value [10] was 3 (Herbicidal rate of 40% or more and less than 70%), the “Herbicidal effect on A: late watergrass (grade 0-5)” value [11] was 3 (Herbicidal rate of 40% or more and less than 70%) and the “herbicidal effect rating, C: oval-leafed pondweed” value [12] was 3 (Herbicidal rate of 40% or more and less than 70%). The “herbicidal effect on L: windgrass” value [13] was 4 (Herbicidal rate of 70% or more and less than 90%), the “P: chickweed, herbicidal effect (criteria 0-5)” value [14] was 5 (Herbicidal rate of 90% or more (almost completely withered)) and the “herbicidal effect on E: rice flat sedge” value [15] was 5 (Herbicidal rate of 90% or more (almost completely withered)). The “F: southern crabgrass, herbicidal effect (criteria 0-5)” value [16] was 3 (Herbicidal rate of 40% or more and less than 70%).
With `Cc1ccccc1C(=O)Oc1c(C)nn(C)c(=O)c1-c1c(-c2ccc(OC(F)F)cc2)sc2ccc(F)cc12` [2-285] the “herbicidal effect on I: wild oat” value [1] was 0 (Herbicidal rate of 5% or less (almost no effect)), the “M: velvetleaf, herbicidal effect (criteria 0-5)” value [2] was 5 (Herbicidal rate of 90% or more (almost completely withered)) and the “N: redroot pigweed, herbicidal effect (criteria 0-5)” value [3] was 5 (Herbicidal rate of 90% or more (almost completely withered)). The “G: green foxtail, herbicidal effect (criteria 0-5)” value [4] was 3 (Herbicidal rate of 40% or more and less than 70%), the “herbicidal effect on R: persian speedwell” value [5] was 3 (Herbicidal rate of 40% or more and less than 70%) and the “R: persian speedwell, herbicidal effect (criteria 0-5)” value [6] was 5 (Herbicidal rate of 90% or more (almost completely withered)). For the same compound, the “H: barnyard grass, herbicidal effect (criteria 0-5)” value [7] was 4 (Herbicidal rate of 70% or more and less than 90%), the “herbicidal effect on K: Italian ryegrass” value [8] was 2 (Herbicidal rate of 20% or more and less than 40%) and the “herbicidal effect rating, B: Japanese bulrush” value [9] was 3 (Herbicidal rate of 40% or more and less than 70%). The “Herbicidal effect on C: oval-leafed pondweed (grade 0-5)” value [10] was 0 (Herbicidal rate of 5% or less (almost no effect)), the “Herbicidal effect on A: late watergrass (grade 0-5)” value [11] was 5 (Herbicidal rate of 90% or more (almost completely withered)) and the “herbicidal effect rating, C: oval-leafed pondweed” value [12] was 0 (Herbicidal rate of 5% or less (almost no effect)). The “herbicidal effect on L: windgrass” value [13] was 0 (Herbicidal rate of 5% or less (almost no effect)), the “P: chickweed, herbicidal effect (criteria 0-5)” value [14] was 5 (Herbicidal rate of 90% or more (almost completely withered)) and the “herbicidal effect on E: rice flat sedge” value [15] was 5 (Herbicidal rate of 90% or more (almost completely withered)). For the same compound, the “F: southern crabgrass, herbicidal effect (criteria 0-5)” value [16] was 1 (Herbicidal rate of 5% or more and less than 20%).
